A short description of data set [1]: Photochromic properties of photochromic laminate (plastic lens) made by coating method. It is filed as physicochemical. The settings on record: for Color developing density at 23°C: absorbance difference after 240 seconds irradiation at 23°C; for Color developing density at 35°C: absorbance difference after 240 seconds irradiation at 35°C; for Maximum absorption wavelength: after color development, second absorption wavelength (lower line of pair). An excerpt:
First, the photochromic compound obtained in Example 1 above, a photoinitiator, and polymerizable compounds were mixed to obtain a curable composition.
As the polymerizable compounds, a blend of the following radically-polymerizable monomers in combination was used.
• Polyethylene glycol dimethacrylate (average molecular weight: 736): 42 parts by mass • Polyethylene glycol dimethacrylate (average molecular weight: 536): 12 parts by mass • Trimethylolpropane trimethacrylate: 38 parts by mass • γ-Methacryloyloxypropyltrimethoxysilane: 2 parts by mass • Glycidyl methacrylate: 1 part by mass.
Note that in the curable composition, the photochromic compound obtained in Example 1 above was added to be 0.25 mmol taking the total amount of the radically-polymerizable monomers as 100 g. The following were used as additives.
(stabilizer, Irganox 245): 1 part by mass Bis(1,2,2,6,6-pentamethyl-4-piperidyl) sebacate: 3 parts by mass Leveling agent from DuPont Toray Specialty Materials K.K. (L7001): 0.1 parts by mass.
Note that the above-mentioned additives are described with blending ratios taking a total of the radically-polymerizable monomers as 100 parts by mass.
Using this curable composition, a photochromic laminate was obtained by a lamination process described below with the polymerization described below being carried out.
First, a thiourethane plastic lens with a center thickness of 2 mm and a refractive index of 1.60 was prepared as an optical substrate. Note that the thiourethane plastic lens had been alkaline-etched beforehand in a 10% aqueous sodium hydroxide solution at 50°C for 5 minutes, and then thoroughly washed with distilled water.
A spin coater (1H-DX2, manufactured by MIKASA CO., LTD) was used to coat a surface of the above-mentioned plastic lens with a moisture-curable primer (product name: TR-SC-P, manufactured by Tokuyama Corporation) at a rotation speed of 70 rpm for 15 seconds, followed by at 1000 rpm for 10 seconds. Then, about 2 g of the photochromic curable composition obtained as above was spin-coated at a rotation speed of 60 rpm for 40 seconds, followed by at 600 rpm for 10 to 20 seconds so as to achieve a photochromic coating layer with a film thickness of 40 µm.
The lens having the surface coated with the photochromic curable composition (photochromic coating layer) was irradiated with light for 90 seconds in a nitrogen gas atmosphere using a metal halide lamp with an output of 200 mW/cm^2 to cure the coating film. The coating was then further heated at 110°C for 1 hour to produce a photochromic laminate with a photochromic layer.
Photochromic laminates were produced using the photochromic compounds obtained in Examples 2 to 19 in the same manner as in Example 20.
Photochromic laminates were obtained in the same manner as in Example 20 using photochromic compounds represented by the following formulas (A) to (F). [drawing 143] [drawing 144] [drawing 145] [drawing 146] [drawing 147] [drawing 148] [drawing 149] [drawing 150]
The resulting photochromic laminates were evaluated by the methods described below.
Table 3 summarizes the results of Examples 20, 32, and 34, and Comparative Examples 1 to 6, and Table 4 summarizes the results of Examples 21 to 31, 33, and 35 to 38. The relationship between the fading half-life at 23°C and the color development ratio at the higher temperature of the photochromic laminates according to Examples and Comparative Examples are shown in a graph in FIG. 1.
Photochromic laminates were formed using the photochromic compound obtained in Examples 61 to 71 in the same manner as in Example 20.

Data set [2] in a line: Photochromic properties of photochromic cured product made by kneading method. It is filed as physicochemical. Particulars: for Maximum absorption wavelength: 1 mm, after color development, second absorption wavelength (lower line of pair); for Color developing density at 23°C: absorbance difference after 240 seconds irradiation at 23°C; for Color developing density at 35°C: absorbance difference after 240 seconds irradiation at 35°C. An excerpt:
First, the photochromic compound obtained in Example 1, additives, and polymerizable compounds were mixed to obtain a curable composition. As the polymerizable compounds, a blend of the following polymerizable monomers in combination was used. • 1,3-Bis(isocyanatomethyl)cyclohexane: 36.7 parts by mass Pentaerythritol tetrakis(3-mercaptopropionate): 39.4 parts by mass • Polyoxyethylene polyoxypropylene lauryl ether (WONDERSURF 140 from Aoki Oil Industrial Co., Ltd.): 17.4 parts by mass 1-Decanethiol: 2.8 parts by mass • RX-1 prepared according to the method described in Patent Document 12: 3.8 parts by mass Note that in the curable composition, the photochromic compound was added to be 0.106 mmol taking the total amount of the polymerizable monomers as 100 g.
The following additives were used. Dimethyltin dichloride: 0.05 parts by mass • Irganox 245 from BASF Japan Ltd.: 0.1 parts by mass • 2-Ethylhexyl 4-methoxycinnamate: 0.6 parts by mass
The prepared curable composition was sufficiently degassed, and then injected into a glass mold provided with a gap of 1 mm, and the curable composition was polymerized via casting polymerization. […] After the polymerization, the cured product was removed from the glass mold, to obtain photochromic cured product having a thickness of 1 mm. The resulting photochromic cured product was evaluated in the same manner as in Example 23.
(Examples 51 to 60, and Comparative Examples 11 to 14) Photochromic cured products were formed using the photochromic compound shown in Table 6 in the same manner as in Example 50.

Data set [3] is described as follows: Photochromic properties of photochromic layer (binder sheet) made by binder method. The settings on record: for Color developing density at 23°C: absorbance difference after 240 seconds irradiation at 23°C; for Color developing density at 35°C: absorbance difference after 240 seconds irradiation at 35°C; for Maximum absorption wavelength: after color development, second absorption wavelength (lower line of pair).
Experimental: This is the maximum absorption wavelength after color development determined by a spectrophotometer manufactured by Otsuka Electronics Co., Ltd. (instantaneous multichannel photo detector MCPD3000) and was used as an index of a color tone upon color development.
This is a difference between an absorbance {ε(240)} after irradiation with light at the above-mentioned maximum absorption wavelength at 23°C for 240 seconds and an absorbance ε(0) when not irradiated with light, and was used as an index of a color developing density. The higher this value is, the better photochromic property is.
This is a difference between an absorbance {ε(240)} after irradiation with light at first and second absorption wavelengths at 35°C for 240 seconds and an absorbance ε(0) when not irradiated with light, and was used as an index of a color developing density. The higher this value is, the better photochromic property is.
Color developing density at 35°C (A35) /color developing density at 23°C (A23) × 100(%). The higher this value is, the smaller the difference in color developing density between the higher temperature and the lower temperature is, and the smaller the temperature dependence is.
This is the period of time required for the absorbance at a maximum absorption wavelength of a sample to decrease to 1/2 of {ε(240)-ε(0)}, when light irradiation is stopped after the sample had been irradiated with light at 23°C for 240 seconds, and was used as an index of a color fading rate. The shorter this period of time is, the higher the color fading rate is.
A binder sheet was made according to the following method. […] As the first and second optical sheets, polycarbonate sheets with a thickness of 400 µm were used.
Note that the photochromic compound was added to be 0.25 mmol relative to 100 parts by mass of the terminally non-reactive urethaneurea resin.

Take `COc1ccc(C2(c3ccc(OC)cc3)C=Cc3c4c(c5ccc(OC)cc5c3O2)-c2ccc(N(C)c3ccccc3)cc2C4(C)C)cc1` [Formula (1-7)]: the “Color developing density at 23°C” value is given as 0.86 - in data set [1] (first absorption wavelength); 1.06 - in data set [1] (second absorption wavelength); 0.89 - in data set [2] (first absorption wavelength); 1.09 - in data set [2] (second absorption wavelength); 0.88 - in data set [3] (first absorption wavelength); 1.08 - in data set [3] (second absorption wavelength). In addition, the “Color developing density at 35°C” value was 0.64 - in data set [1] (first absorption wavelength); 0.81 - in data set [1] (second absorption wavelength); 0.67 - in data set [2] (first absorption wavelength); 0.84 - in data set [2] (second absorption wavelength); 0.63 - in data set [3] (first absorption wavelength); 0.80 - in data set [3] (second absorption wavelength). Moreover, the figures for the Maximum absorption wavelength in data set [1], in data set [2] and in data set [3] were 616 nm, 621 nm and 613 nm, respectively.

With `COCCCCC1(CCCCOC)c2cc(N(C)c3ccccc3)ccc2-c2c1c1c(c3cc(OC)c(OC)cc23)OC(c2ccc(OC)cc2)(c2ccc(OC)cc2)C=C1` [Formula (2-7)], the “Color developing density at 23°C” value in data set [1] (first absorption wavelength) was 1.43 -; in data set [1] (second absorption wavelength), 0.83 -; in data set [2] (first absorption wavelength), 1.50 -; in data set [2] (second absorption wavelength), 0.86 -; in data set [3] (first absorption wavelength), 1.47 -; in data set [3] (second absorption wavelength), 0.85 -. For the same molecule, the “Color developing density at 35°C” value in data set [1] (first absorption wavelength) is given as 1.06 -; in data set [1] (second absorption wavelength), 0.62 -; in data set [2] (first absorption wavelength), 1.12 -; in data set [2] (second absorption wavelength), 0.66 -; in data set [3] (first absorption wavelength), 1.06 -; in data set [3] (second absorption wavelength), 0.61 -. Moreover, the Maximum absorption wavelength came to 608 nm in data set [1], 615 nm in data set [2] and 609 nm in data set [3].

Regarding `CCCCOc1ccc(C2(c3ccc(OC)cc3)C=Cc3c4c(c5ccc(C)cc5c3O2)-c2ccc(N3CCOc5ccccc53)cc2C4(CCCC(F)(F)F)CCCC(F)(F)F)cc1` (stereo not shown) [Formula (3-3)], the “Color developing density at 23°C” value in data set [1] (first absorption wavelength) was 0.91 -; in data set [1] (second absorption wavelength), 1.33 -; in data set [2] (first absorption wavelength) it was 0.94 -; in data set [2] (second absorption wavelength), 1.36 -; in data set [3] (first absorption wavelength), 0.94 -; in data set [3] (second absorption wavelength), 1.34 -. In addition, the “Color developing density at 35°C” value in data set [1] (first absorption wavelength) is 0.69 -; in data set [1] (second absorption wavelength) it was 1.02 -; in data set [2] (first absorption wavelength) it was 0.73 -; in data set [2] (second absorption wavelength) it was 1.06 -; in data set [3] (first absorption wavelength) it was 0.68 -; in data set [3] (second absorption wavelength) it was 1.00 -. Further, the Maximum absorption wavelength in data set [1] turned out to be 581 nm; in data set [2], 588 nm; in data set [3] it was 580 nm.

For `COc1ccc(C2(c3ccc(N4CCOCC4)cc3)C=Cc3c4c(c5ccc(OC)cc5c3O2)-c2ccc(N(C)c3ccccc3)cc2C42CCCCCCC2)cc1` (stereo not shown) [Formula (4-3)], the “Color developing density at 23°C” value in data set [1] (first absorption wavelength) is 0.68 -; in data set [1] (second absorption wavelength), 1.14 -; in data set [2] (first absorption wavelength) it was 0.69 -; in data set [2] (second absorption wavelength), 1.17 -; in data set [3] (first absorption wavelength), 0.68 -; in data set [3] (second absorption wavelength), 1.16 -. For the same molecule, the “Color developing density at 35°C” value in data set [1] (first absorption wavelength) is 0.48 -; in data set [1] (second absorption wavelength), 0.81 -; in data set [2] (first absorption wavelength) it was 0.49 -; in data set [2] (second absorption wavelength) it was 0.84 -; in data set [3] (first absorption wavelength), 0.47 -; in data set [3] (second absorption wavelength), 0.80 -. In addition, the results for the Maximum absorption wavelength in data set [1], in data set [2] and in data set [3] were 626 nm, 631 nm and 627 nm, respectively.

As for `COCCCC1(CCCOC)c2cc(N(c3ccccc3)c3ccccc3)ccc2-c2c1c1c(c3cc(OC)c(N4CCOCC4)cc23)OC(c2ccc(C)cc2)(c2ccc(N(C)c3ccccc3)cc2)C=C1` (stereo not shown) [Formula (69-2)], in data set [1] (first absorption wavelength), the “Color developing density at 23°C” value is given as 1.76 - and the “Color developing density at 35°C” value was 1.32 -. Moreover, in data set [1] (second absorption wavelength), the “Color developing density at 23°C” value is recorded as 1.28 - and the “Color developing density at 35°C” value is on record as 0.96 -. The Maximum absorption wavelength in data set [1] is reported as 640 nm.

Regarding `CCCCCCC1(CCCCCC)c2cc(N(c3ccccc3)c3ccccc3)ccc2-c2c1c1c(c3cc(OC)c(-c4ccccc4N4CCOCC4)cc23)OC(c2ccc(OC)cc2)(c2ccc(OC)c(F)c2)C=C1` (stereo not shown) [Formula (70-4)], in data set [1] (first absorption wavelength), the “Color developing density at 23°C” value is reported as 1.44 - and the “Color developing density at 35°C” value was 1.16 -. Also, in data set [1] (second absorption wavelength), the “Color developing density at 23°C” value is 1.24 - and the “Color developing density at 35°C” value was 1.01 -. In data set [1], the Maximum absorption wavelength is given as 621 nm.

Regarding `CCCC1(CCC)c2cc(N(C)c3ccccc3)ccc2-c2c1c1c(c3cc(OC)c(-c4ccc(N5CC(C)OC(C)C5)cc4)cc23)OC(c2ccc(N3CCOCC3)cc2)(c2ccc(OC)c(OC)c2)C=C1` (stereo not shown) [Formula (71-5)], the “Color developing density at 23°C” value in data set [1] (first absorption wavelength) is listed as 1.43 -; in data set [1] (second absorption wavelength) it was 1.36 -. For the same molecule, the “Color developing density at 35°C” value in data set [1] (first absorption wavelength) is given as 1.17 -; in data set [1] (second absorption wavelength), 1.10 -. The Maximum absorption wavelength in data set [1] came to 643 nm.

As for `COc1ccc(C2(c3ccc(OC)cc3)C=Cc3c4c(c5ccc(OC)cc5c3O2)-c2ccc(Oc3ccccc3)cc2C4(C)C)cc1` [Formula(E), reference compound], in data set [1] (first absorption wavelength), the “Color developing density at 23°C” value is 0.71 - and the “Color developing density at 35°C” value is 0.46 -. In data set [1] (second absorption wavelength), the “Color developing density at 23°C” value is on record as 0.96 - and the “Color developing density at 35°C” value is 0.63 -. Besides, the Maximum absorption wavelength in data set [1] turned out to be 579 nm.

As for `COc1ccc(C2(c3ccc(OC)cc3)C=Cc3c4c(c5ccc(OC)cc5c3O2)-c2ccc(OC(F)(F)F)cc2C4(C)C)cc1` [Formula(F), reference compound], in data set [1] (first absorption wavelength), the “Color developing density at 23°C” value is listed as 0.62 - and the “Color developing density at 35°C” value is reported as 0.37 -. Moreover, in data set [1] (second absorption wavelength), the “Color developing density at 23°C” value is 0.75 - and the “Color developing density at 35°C” value was 0.45 -. Besides, in data set [1], the Maximum absorption wavelength came out at 565 nm.

The record behind these values is EP4755878A1, “PHOTOCHROMIC COMPOUND, PHENOL DERIVATIVE, CURABLE COMPOSITION, OPTICAL ARTICLE, LENS, AND EYEGLASS” (TOKUYAMA CORPORATION, priority 2023, dated 2025).
